We go through 18 compounds from patent publication US9643967B2, “Pyrrolo[3,2-c]pyridine derivatives as TLR inhibitors” (TAKEDA PHARMACEUTICAL COMPANY LIMITED, priority 2013, dated 2017).

Read-outs that look alike come from different tables or passages of the source.

In this assay the target is T1, mTLR7 (Mus musculus, UniProt P58681).
T1 construct: Splenocytes isolated from male C57/BL6 mice; from tissue; host or cells: splenocytes from the spleen of male C57BL/6 mice
T1 sequence (P58681 27-1050): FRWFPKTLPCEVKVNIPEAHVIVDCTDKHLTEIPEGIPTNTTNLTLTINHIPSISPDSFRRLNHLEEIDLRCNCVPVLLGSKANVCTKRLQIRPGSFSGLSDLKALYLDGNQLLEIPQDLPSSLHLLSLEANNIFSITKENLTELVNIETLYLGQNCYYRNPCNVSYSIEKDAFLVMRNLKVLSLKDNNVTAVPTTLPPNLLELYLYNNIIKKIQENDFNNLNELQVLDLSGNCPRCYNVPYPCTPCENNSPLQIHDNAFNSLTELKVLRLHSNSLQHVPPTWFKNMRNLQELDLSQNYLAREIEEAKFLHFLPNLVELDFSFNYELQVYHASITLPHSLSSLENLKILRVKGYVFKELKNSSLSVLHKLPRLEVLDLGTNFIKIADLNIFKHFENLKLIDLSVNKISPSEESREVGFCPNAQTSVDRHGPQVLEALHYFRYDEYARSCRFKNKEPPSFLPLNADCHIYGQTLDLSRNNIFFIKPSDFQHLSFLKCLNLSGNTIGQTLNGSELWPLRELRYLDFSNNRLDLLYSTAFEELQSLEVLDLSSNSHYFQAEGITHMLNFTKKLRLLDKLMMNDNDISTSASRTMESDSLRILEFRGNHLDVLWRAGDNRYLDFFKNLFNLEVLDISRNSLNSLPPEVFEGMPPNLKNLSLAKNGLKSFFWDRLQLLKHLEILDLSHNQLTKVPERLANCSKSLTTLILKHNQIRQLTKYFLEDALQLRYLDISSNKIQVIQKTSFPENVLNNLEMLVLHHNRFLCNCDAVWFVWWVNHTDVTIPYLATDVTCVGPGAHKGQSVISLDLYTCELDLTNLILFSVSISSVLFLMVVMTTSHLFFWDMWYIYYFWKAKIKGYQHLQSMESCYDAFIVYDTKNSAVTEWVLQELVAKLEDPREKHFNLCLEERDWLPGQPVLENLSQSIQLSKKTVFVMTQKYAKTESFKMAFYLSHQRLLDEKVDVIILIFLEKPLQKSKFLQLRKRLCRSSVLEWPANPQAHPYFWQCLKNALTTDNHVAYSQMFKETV
Put plainly: mTLR7 antagonism (IL-6 and TNF-α release assay) in mouse splenocytes, R0006/DOTAP stimulated. In kind it is cell-based. The settings on record: 1 μM, mouse splenocytes. The source says: mTLR9 and mTLR7 Antagonism (Cytokine Release Assay) in Mouse Splenocytes
TLR7 ligand R0006 (IDT, 5′-rU*rU*rG*rU*rU*rG*rU*rU*rG*rU*rU*rG*rU*rU*rG*rU*rU*rG*rU*rU-3′ (SEQ ID NO:1)), Liposomal transfection reagent—DOTAP (Roche, Cat. No. 11202375001), TLR9 ligand CpG ODN2006 (Sequence: T*C*G*T*C*G*T*T*T*T*G*T*C*G*T*T*T*T*G*T*C*G*T*T; *=phosphorothioate (SEQ ID NO:2)) DMSO (Sigma, D2650), RPMI Powder (Sigma, R6504), Fetal Bovine Serum (Gibco, 10270), Dulbecco's Phosphate Buffered Saline (Sigma, D1408), 96 well plate (Flat bottom, Costar 3599), ELISA kit for IL-6 (EBioscience, 88-7064-77 and TNFa (EBioscience, 88-7346-88), MACS Buffer (AutoMACS Rinsing Solution (Miltenyl Biotec, 130-091-222)+0.05% BSA), RBC lysis buffer (0.85% NH4Cl), 40 μm cell strainer (BD Falcon, 352340) Method: A. Isolation of Mouse Splenocytes
Mouse spleen was isolated from C57BL6 mouse and stored in 1× chilled PBS buffer until further processed. Spleen was transferred to a sterile petriplate and chopped in to 5-6 pieces in presence of MACS buffer (100 μl) with the help of fresh surgical blade and crushed with flat plunger of a sterile syringe. A uniform suspension was prepared by passing cells through a 40 μm cell strainer. Cells were centrifuged at 450×g for 5 minutes at 4° C., supernatant was discarded and pellet dislodged gently, resuspended in 2 ml of pre-warmed (37° C.) RBC lysis buffer at room temperature with continuous gentle mixing with 1 ml pipette. Lysis buffer was neutralized with 12 ml of chilled MACS buffer and cells were passed through 40 μm cell strainer. Cell suspension was collected in 15 ml MACS buffer and centrifuged at 450×g for 5 minutes at 4° C. Pellet was resuspended in 15 ml MACS buffer and centrifuged at 400×g for 5 minutes. Cells were resuspended in 10 ml of RPMI complete medium and viability was estimated by Trypan blue method.
mTLR7 Antagonism (IL-6 and TNF-α Release Assay):
1 mg/ml stock of R0006 was prepared in sterile, endotoxin-free water. R0006 stock was diluted 10 fold with DOTAP and incubated for 30 minutes to form liposome complex (100 μg/ml of R0006). This complex was further diluted 10 fold with incomplete RPMI media (10 μg/ml of R0006) to achieve the final agonist concentration of 1 μg/ml. DOTAP alone was diluted 10 fold in incomplete RPMI media. NCEs were added in a concentration range of 30 μM to 1 nM in respective wells of assay plate, assay medium containing 0.3% DMSO were added to control wells. 0.2 million splenocytes were added to all the wells and incubated at 37° C. in 5% CO2 incubator for 30 minutes. 1 μg/ml of respective agonist was added to all the wells except those were assigned as negative controls and mixed thoroughly. DOTAP was added to negative control wells and incubated overnight at 37° C./5% CO2. The plate was centrifuged at 450×g for 5 minutes at room temperature and the supernatant was collected. ELISA was performed as per manufacturer's protocol. S/B Ratio, % Activity and % Inhibition was calculated using MS Excel. IC50 and inhibition curve was generated using Graph Pad Prism.

The mark [1] stands for this setting: IL-6 release, read-out: mTLR7 inhibitory activity (% at 1 μM), IL-6.
Setting [2] is: TNF-α release, read-out: mTLR7 inhibitory activity (% at 1 μM), TNF-α.

For the compound `CC(C)N1CCN(c2ccc(-c3nccc4[nH]c(CN5CCOCC5)cc34)cc2)CC1` [Example A1, 4-[[4-[4-(4-isopropylpiperazin-1-yl)phenyl]-1H-pyrrolo[3,2-c]pyridin-2-yl]methyl]morpholine], the inhibition at 1 µM under setting [1] turned out to be 97% and the inhibition at 1 µM under setting [2] came out at 100%.
In the same order, the values of `CN1CCN(c2ccc(-c3nccc4[nH]c(CN5CCOCC5)cc34)cc2)CC1` [Example A2, 4-[[4-[4-(4-methylpiperazin-1-yl)phenyl]-1H-pyrrolo[3,2-c]pyridin-2-yl]methyl] morpholine] are 90% and 100%.
As for `CCN1CCN(c2ccc(-c3nccc4[nH]c(CN5CCOCC5)cc34)cc2)CC1` [Example A3, 4-[[4-[4-(4-ethylpiperazin-1-yl)phenyl]-1H-pyrrolo[3,2-c]pyridin-2-yl]methyl] morpholine], the inhibition at 1 µM stood at 100% under setting [1] and 100% under setting [2].
In the case of `Cc1cc2[nH]c(CN3CCOCC3)cc2c(-c2ccc(N3CCN(C(C)C)CC3)cc2)n1` [Example A4, 4-[[4-[4-[4-isopropylpiperazin-1-yl)phenyl]-6-methyl-1H-pyrrolo[3,2-c]pyridin-2-yl]methyl] morpholine], the inhibition at 1 µM was found to be 100% under setting [1] and 100% under setting [2].
As to `CCN1CCN(c2ccc(-c3nc(C)cc4[nH]c(CN5CCOCC5)cc34)cc2)CC1` [Example A5, 4-[[4-[4-(4-ethylpiperazin-1-yl)phenyl]-6-methyl-1H-pyrrolo[3,2-c]pyridin-2-yl]methyl] morpholine], the inhibition at 1 µM runs as follows: under setting [1], 100%; under setting [2], 100%.
In the case of `CC(C)N1CCN(c2ccc(-c3nccc4c3cc(CN3CCOCC3)n4C)cc2)CC1` [Example A8, 4-[[4-[4-(4-isopropylpiperazin-1-yl)phenyl]-1-methyl-pyrrolo[3,2-c]pyridin-2-yl]methyl] morpholine], the inhibition at 1 µM runs as follows: under setting [1], 100%; under setting [2], 100%.
As for `CN1CCN(c2ccc(-c3nccc4c3cc(CN3CCOCC3)n4C)cc2)CC1` [Example A9, 4-[[1-methyl-4-[4-(4-methylpiperazin-1-yl)phenyl]pyrrolo[3,2-c]pyridin-2-yl]methyl] morpholine], the inhibition at 1 µM under setting [2] is 100%.
With `CC(C)N1CCN(c2ccc(-c3nccc4[nH]c(CN5CCC(O)CC5)cc34)cc2)CC1` [Example A12, 1-[[4-[4-(4-isopropylpiperazin-1-yl)phenyl]-1H-pyrrolo[3,2-c]pyridin-2-yl]methyl] piperidin-4-ol], the inhibition at 1 µM by setting is: under setting [1], 80%; under setting [2], 45%.
The like results for `CC(C)N1CCN(c2ccc(-c3nccc4[nH]c(CN5CCC6(CC5)CC(O)C6)cc34)cc2)CC1` [Example A13, 7-[[4-[4-(4-isopropylpiperazin-1-yl)phenyl]-1H-pyrrolo[3,2-c]pyridin-2-yl]methyl]-7-azaspiro[3.5] nonan-2-ol] were, in that order, 98% and 91%.
With `CC(C)N1CCN(c2ccc(-c3nccc4[nH]c(CN5CC(F)C5)cc34)cc2)CC1` [Example A16, 2-[(3-fluoroazetidin-1-yl)methyl]-4-[4-(4-isopropylpiperazin-1-yl)phenyl]-1H-pyrrolo[3,2-c]pyridine], the inhibition at 1 µM by setting is: under setting [1], 100%; under setting [2], 99%.
On to `CC(C)N1CCN(c2ccc(-c3nccc4[nH]c(CN5CCCCC5)cc34)cc2)CC1` [Example A17, 4-[4-(4-isopropylpiperazin-1-yl)phenyl]-2-(1-piperidylmethyl)-1H-pyrrolo[3,2-c]pyridine], for which the inhibition at 1 µM reads like this: under setting [1], 100%; under setting [2], 100%.
With `CC(C)N1CCN(c2ccc(-c3nccc4[nH]c(CN5CCC(F)CC5)cc34)cc2)CC1` [Example A24, 2-[(4-fluoro-1-piperidyl)methyl]-4-[4-(4-isopropylpiperazin-yl)phenyl]-1H-pyrrolo[3,2-c] pyridine], the inhibition at 1 µM under setting [2] worked out at 100%.
As to `CN1CCN(c2ccc(-c3nccc4[nH]c(CN5CCC(F)CC5)cc34)cc2)CC1` [Example A25, 2-[(4-fluoro-1-piperidyl)methyl]-4-[4-(4-methylpiperazin-1-yl)phenyl] - 1H-pyrrolo[3,2-c]pyridine], the inhibition at 1 µM under setting [1] turned out to be 100% and the inhibition at 1 µM under setting [2] came to 100%.
On to `Cc1cc2[nH]c(Cn3cccn3)cc2c(-c2ccc(N3CCN(C(C)C)CC3)cc2)n1` [Example A28, 4-[4-(4-isopropylpiperazin-1-yl)phenyl]-6-methyl-2-(pyrazol-1-ylmethyl)-1H-pyrrolo[3,2-c]pyridine], for which the inhibition at 1 µM reads like this: under setting [1], 88%; under setting [2], 100%.
In the same order, the values of `Cc1cc2[nH]c(CN3CCC4(CC3)CC(O)C4)cc2c(-c2ccc(N3CCN(C(C)C)CC3)cc2)n1` [Example A29, 7-[[4-[4-(4-isopropylpiperazin-1-yl)phenyl]-6-methyl-1H-pyrrolo[3,2-c]pyridin-2-yl]methyl]-7-azaspiro[3.5] nonan-2-ol] are 97% and 82%.
As for `Cc1cc2[nH]c(CN3CCC4(CC3)CC(C)C4)cc2c(-c2ccc(N3CCN(C(C)C)CC3)cc2)n1` [Example A30, 4-[4-(4-isopropylpiperazin-1-yl)phenyl]-6-methyl-2-[(2-methyl-7-azaspiro[3.5]nonan-7-yl)methyl]-1H-pyrrolo[3,2-c]pyridine], the inhibition at 1 µM is, setting by setting: under setting [1], 100%; under setting [2], 100%.
On to `CC(C)N1CCN(c2ccc(-c3nc(C4CC4)cc4[nH]c(CN5CCOCC5)cc34)cc2)CC1` [Example A33, 4-[[6-cyclopropyl-4-[4-(4-isopropylpiperazin-1-yl)phenyl]-1H-pyrrolo[3,2-c]pyridin-2-yl]methyl] morpholine], for which, under setting [2], the inhibition at 1 µM stood at 83%.
`CN1CCN(c2ccc(-c3nc(C4CC4)cc4[nH]c(CN5CCOCC5)cc34)cc2)CC1` [Example A34, 4-[[6-cyclopropyl-4-[4-(4-methylpiperazin-1-yl)phenyl]-1H-pyrrolo[3,2-c]pyridin-2-yl]methyl] morpholine]: under setting [2], the inhibition at 1 µM turned out to be 100%.
